From the supplement of paper PMC4862054

How the values were obtained:
Settings in all cases: incubation time: 72 h
BT-474 [1] = experiment: normalised viability (% of control), CellTiter-Blue; higher = more viable cells (about 100 = DMSO control)
In short: (§1)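 After 72 h on compound-loaded 384-well plates, breast cancer cell lines received 2.5 µl CellTiter-Blue reagent for 2 h at 37 °C. Fluorescence at 560/590 nm was scaled per plate so that vehicle was 100 and a positive kill control was 0. The value stands for normalised viability at a single listed concentration of the series.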

BT-549 = experiment: as above
In short: as §1

CAL-120 = experiment: as above
In short: as §1

CAL-148 [2] = experiment: as above
In short: as §1

CAL-51 = experiment: as above
In short: as §1

CAL-85-1 [3] = experiment: as above
In short: as §1

DU-4475 = experiment: as above
In short: as §1

HCC1143 = experiment: as above
In short: as §1

HCC1599 = experiment: as above
In short: as §1

HCC1937 = experiment: as above
In short: as §1

HDQ-P1 = experiment: as above
In short: as §1

Hs578T = experiment: as above
In short: as §1

MDA-MB-231 = experiment: as above
In short: as §1

MDA-MB-436 = experiment: as above
In short: as §1

MDA-MB-453 = experiment: as above
In short: as §1

MDA-MB-468 [4] = experiment: as above
In short: as §1

MFM-223 = experiment: as above
In short: as §1

SK-BR-3 = experiment: as above
In short: as §1

BT-474 [5] = experiment: normalised viability (% of control), CellTiter-Blue; higher = more viable cells (100 = DMSO, 0 = benzethonium chloride kill control)
Protocol: (§2)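 DSRT, CellTiter-Blue viability, 72 h incubation. Signal is normalised to DMSO and benzethonium chloride controls. Value is the normalised response at dose 1.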

CAL-85-1 [6] = experiment: as above
Protocol: as §2

CAL-148 [7] = experiment: drug sensitivity score (DSS), CellTiter-Blue viability (DSS (AUC-based score)); higher = stronger viability inhibition; extreme values may be limits of the assay
In short: (§3)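 The drug sensitivity score was derived from the area under a fitted dose-response curve. To obtain the curves, breast cancer cells (20 µl suspension) were plated into 384-well plates with compound at 5 or 9 concentrations and kept for 72 h. Viability was measured by CellTiter-Blue fluorescence at 560/590 nm, with each plate normalised to 0.1 % DMSO and a positive kill control.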

MDA-MB-468 [8] = experiment: as above
In short: as §3

Cc1cnc(NC(=O)Nc2cc(Br)c(C)cc2OC[C@@H]2CNCCO2)cn1
Settings | normalised viability [%]
BT-474 [1], 1 nM | 102
BT-474 [1], 100 nM | 107
BT-474 [1], 1000 nM | 107
BT-474 [5], 0.1 nM | 107
BT-549, 1 nM | 90.9
BT-549, 100 nM | 96
BT-549, 1000 nM | 92
CAL-51, 0.3 nM | 97.8
CAL-51, 3 nM | 85.7
CAL-51, 10 nM | 93.1
CAL-85-1 [3], 0.3 nM | 90.6
CAL-85-1 [3], 3 nM | 89.4
CAL-85-1 [3], 10 nM | 106
CAL-85-1 [6], 0.1 nM | 96.7
CAL-120, 1 nM | 88.5
CAL-120, 100 nM | 96.4
CAL-120, 1000 nM | 90.1
CAL-148 [2], 0.3 nM | 99.2
CAL-148 [2], 3 nM | 90
CAL-148 [2], 10 nM | 96.3
DU-4475, 0.3 nM | 116
DU-4475, 3 nM | 94.6
DU-4475, 10 nM | 106
HCC1143, 1 nM | 97.9
HCC1143, 100 nM | 90
HCC1143, 1000 nM | 79.3
HCC1599, 1 nM | 112
HCC1599, 100 nM | 95.7
HCC1599, 1000 nM | 65.7
HCC1937, 1 nM | 108
HCC1937, 100 nM | 80.7
HCC1937, 1000 nM | 50.6
HDQ-P1, 0.3 nM | 104
HDQ-P1, 3 nM | 88.4
HDQ-P1, 10 nM | 68.7
Hs578T, 1 nM | 92.6
Hs578T, 100 nM | 102
Hs578T, 1000 nM | 35
MDA-MB-231, 1 nM | 106
MDA-MB-231, 100 nM | 103
MDA-MB-231, 1000 nM | 94
MDA-MB-436, 1 nM | 104
MDA-MB-436, 100 nM | 83.4
MDA-MB-436, 1000 nM | 67.8
MDA-MB-453, 0.3 nM | 109
MDA-MB-453, 3 nM | 111
MDA-MB-453, 10 nM | 105
MDA-MB-468 [4], 1 nM | 106
MDA-MB-468 [4], 100 nM | 110
MDA-MB-468 [4], 1000 nM | 56.6
MFM-223, 1 nM | 104
MFM-223, 100 nM | 98.8
MFM-223, 1000 nM | 79.5
SK-BR-3, 1 nM | 98.9
SK-BR-3, 100 nM | 101
SK-BR-3, 1000 nM | 30.1

Settings | drug sensitivity score
CAL-148 [7] | 0
MDA-MB-468 [8] | 0

NCCCNCCSP(=O)(O)O [Amifostine]
Settings | normalised viability [%]
BT-474 [1], 10 nM | 94.2
BT-474 [1], 1000 nM | 94.5
BT-474 [1], 10000 nM | 111
BT-474 [5], 1 nM | 85.7
BT-549, 10 nM | 81.4
BT-549, 1000 nM | 96.6
BT-549, 10000 nM | 93.3
CAL-51, 3 nM | 113
CAL-51, 30 nM | 106
CAL-51, 100 nM | 107
CAL-85-1 [3], 3 nM | 97.5
CAL-85-1 [3], 30 nM | 88
CAL-85-1 [3], 100 nM | 87.2
CAL-85-1 [6], 1 nM | 85.2
CAL-120, 10 nM | 71.9
CAL-120, 1000 nM | 84.1
CAL-120, 10000 nM | 82.1
CAL-148 [2], 3 nM | 97.6
CAL-148 [2], 30 nM | 93.9
CAL-148 [2], 100 nM | 96.5
DU-4475, 3 nM | 85.9
DU-4475, 30 nM | 93.9
DU-4475, 100 nM | 86.4
HCC1143, 10 nM | 79.2
HCC1143, 1000 nM | 84
HCC1143, 10000 nM | 75.2
HCC1599, 10 nM | 102
HCC1599, 1000 nM | 72.4
HCC1599, 10000 nM | 81.7
HCC1937, 10 nM | 79.2
HCC1937, 1000 nM | 95
HCC1937, 10000 nM | 89.5
HDQ-P1, 3 nM | 101
HDQ-P1, 30 nM | 95.5
HDQ-P1, 100 nM | 84.8
Hs578T, 10 nM | 101
Hs578T, 1000 nM | 104
Hs578T, 10000 nM | 95.6
MDA-MB-231, 10 nM | 86.7
MDA-MB-231, 1000 nM | 101
MDA-MB-231, 10000 nM | 86.5
MDA-MB-436, 10 nM | 135
MDA-MB-436, 1000 nM | 91.8
MDA-MB-436, 10000 nM | 86.2
MDA-MB-453, 3 nM | 102
MDA-MB-453, 30 nM | 81
MDA-MB-453, 100 nM | 86.7
MDA-MB-468 [4], 10 nM | 102
MDA-MB-468 [4], 1000 nM | 93
MDA-MB-468 [4], 10000 nM | 91.3
MFM-223, 10 nM | 81.8
MFM-223, 1000 nM | 82.1
MFM-223, 10000 nM | 96.4
SK-BR-3, 10 nM | 81.9
SK-BR-3, 1000 nM | 92.6
SK-BR-3, 10000 nM | 93.3

Settings | drug sensitivity score
CAL-148 [7] | 0
MDA-MB-468 [8] | 0

CC[C@@H]1C(=O)N(C)c2cnc(Nc3ccc(C(=O)NC4CCN(C)CC4)cc3OC)nc2N1C1CCCC1 [BI 2536]
Settings | normalised viability [%]
BT-474 [1], 1 nM | 116
BT-474 [1], 100 nM | 89.1
BT-474 [1], 1000 nM | 100
BT-474 [5], 0.1 nM | 101
BT-549, 1 nM | 85.2
BT-549, 100 nM | 38.6
BT-549, 1000 nM | 44.2
CAL-51, 0.3 nM | 99.2
CAL-51, 3 nM | 90.5
CAL-51, 10 nM | 63.9
CAL-85-1 [3], 0.3 nM | 101
CAL-85-1 [3], 3 nM | 79.7
CAL-85-1 [3], 10 nM | 40.5
CAL-85-1 [6], 0.1 nM | 96.3
CAL-120, 1 nM | 97.5
CAL-120, 100 nM | 28.6
CAL-120, 1000 nM | 30.6
CAL-148 [2], 0.3 nM | 96.9
CAL-148 [2], 3 nM | 92.9
CAL-148 [2], 10 nM | 26.2
DU-4475, 0.3 nM | 105
DU-4475, 3 nM | 86.5
DU-4475, 10 nM | 50.6
HCC1143, 1 nM | 109
HCC1143, 100 nM | 51.3
HCC1143, 1000 nM | 52.4
HCC1599, 1 nM | 78.7
HCC1599, 100 nM | 81.5
HCC1599, 1000 nM | 61.3
HCC1937, 1 nM | 107
HCC1937, 100 nM | 24
HCC1937, 1000 nM | 28.3
HDQ-P1, 0.3 nM | 126
HDQ-P1, 3 nM | 77
HDQ-P1, 10 nM | 74.2
Hs578T, 1 nM | 114
Hs578T, 100 nM | 29.9
Hs578T, 1000 nM | 65.3
MDA-MB-231, 1 nM | 103
MDA-MB-231, 100 nM | 41.8
MDA-MB-231, 1000 nM | 41
MDA-MB-436, 1 nM | 95.7
MDA-MB-436, 100 nM | 65.3
MDA-MB-436, 1000 nM | 78.5
MDA-MB-453, 0.3 nM | 97.8
MDA-MB-453, 3 nM | 56.6
MDA-MB-453, 10 nM | 32.6
MDA-MB-468 [4], 1 nM | 107
MDA-MB-468 [4], 100 nM | 52.2
MDA-MB-468 [4], 1000 nM | 55.1
MFM-223, 1 nM | 87.2
MFM-223, 100 nM | 48.6
MFM-223, 1000 nM | 48.5
SK-BR-3, 1 nM | 99.7
SK-BR-3, 100 nM | 18.4
SK-BR-3, 1000 nM | 23.1

Settings | drug sensitivity score
CAL-148 [7] | 19.7
MDA-MB-468 [8] | 15

CC[C@H](Nc1ncnc2[nH]cnc12)c1nc2cccc(F)c2c(=O)n1-c1ccccc1 [CAL-101]
Settings | normalised viability [%]
BT-474 [1], 10 nM | 108
BT-474 [1], 1000 nM | 109
BT-474 [1], 10000 nM | 90.9
BT-474 [5], 1 nM | 100
BT-549, 10 nM | 100
BT-549, 1000 nM | 96.6
BT-549, 10000 nM | 71.8
CAL-51, 3 nM | 93
CAL-51, 30 nM | 92
CAL-51, 100 nM | 98
CAL-85-1 [3], 3 nM | 88.6
CAL-85-1 [3], 30 nM | 75.9
CAL-85-1 [3], 100 nM | 78
CAL-85-1 [6], 1 nM | 90
CAL-120, 10 nM | 95.6
CAL-120, 1000 nM | 89.6
CAL-120, 10000 nM | 77.8
CAL-148 [2], 3 nM | 91.9
CAL-148 [2], 30 nM | 92.1
CAL-148 [2], 100 nM | 88.5
DU-4475, 3 nM | 105
DU-4475, 30 nM | 83.2
DU-4475, 100 nM | 86.2
HCC1143, 10 nM | 99.4
HCC1143, 1000 nM | 96.1
HCC1143, 10000 nM | 76.2
HCC1599, 10 nM | 84.8
HCC1599, 1000 nM | 77.9
HCC1599, 10000 nM | 49.1
HCC1937, 10 nM | 106
HCC1937, 1000 nM | 94.5
HCC1937, 10000 nM | 92.4
HDQ-P1, 3 nM | 90
HDQ-P1, 30 nM | 101
HDQ-P1, 100 nM | 102
Hs578T, 10 nM | 116
Hs578T, 1000 nM | 112
Hs578T, 10000 nM | 86.8
MDA-MB-231, 10 nM | 89.9
MDA-MB-231, 1000 nM | 92.1
MDA-MB-231, 10000 nM | 80.5
MDA-MB-436, 10 nM | 111
MDA-MB-436, 1000 nM | 107
MDA-MB-436, 10000 nM | 95.7
MDA-MB-453, 3 nM | 97.5
MDA-MB-453, 30 nM | 91.7
MDA-MB-453, 100 nM | 89.8
MDA-MB-468 [4], 10 nM | 110
MDA-MB-468 [4], 1000 nM | 96
MDA-MB-468 [4], 10000 nM | 62.6
MFM-223, 10 nM | 90.3
MFM-223, 1000 nM | 89.9
MFM-223, 10000 nM | 79.9
SK-BR-3, 10 nM | 101
SK-BR-3, 1000 nM | 94.7
SK-BR-3, 10000 nM | 59.1

Settings | drug sensitivity score
CAL-148 [7] | 0
MDA-MB-468 [8] | 2.46
